Here are results for one molecule from patent publication US4719229A, “Antihypercholesterolemic agents” (Merck & Co., Inc., priority 1987, dated 1988).

A word on the IC50: it is the point on the concentration scale where inhibition reaches its midpoint.

This assay addresses T1, HMG-CoA reductase (Rattus norvegicus, UniProt P51639).
T1 construct: from tissue; inferred from the cited J. Med. Chem. 1985, 28, 347
T1 sequence (P51639 1-887): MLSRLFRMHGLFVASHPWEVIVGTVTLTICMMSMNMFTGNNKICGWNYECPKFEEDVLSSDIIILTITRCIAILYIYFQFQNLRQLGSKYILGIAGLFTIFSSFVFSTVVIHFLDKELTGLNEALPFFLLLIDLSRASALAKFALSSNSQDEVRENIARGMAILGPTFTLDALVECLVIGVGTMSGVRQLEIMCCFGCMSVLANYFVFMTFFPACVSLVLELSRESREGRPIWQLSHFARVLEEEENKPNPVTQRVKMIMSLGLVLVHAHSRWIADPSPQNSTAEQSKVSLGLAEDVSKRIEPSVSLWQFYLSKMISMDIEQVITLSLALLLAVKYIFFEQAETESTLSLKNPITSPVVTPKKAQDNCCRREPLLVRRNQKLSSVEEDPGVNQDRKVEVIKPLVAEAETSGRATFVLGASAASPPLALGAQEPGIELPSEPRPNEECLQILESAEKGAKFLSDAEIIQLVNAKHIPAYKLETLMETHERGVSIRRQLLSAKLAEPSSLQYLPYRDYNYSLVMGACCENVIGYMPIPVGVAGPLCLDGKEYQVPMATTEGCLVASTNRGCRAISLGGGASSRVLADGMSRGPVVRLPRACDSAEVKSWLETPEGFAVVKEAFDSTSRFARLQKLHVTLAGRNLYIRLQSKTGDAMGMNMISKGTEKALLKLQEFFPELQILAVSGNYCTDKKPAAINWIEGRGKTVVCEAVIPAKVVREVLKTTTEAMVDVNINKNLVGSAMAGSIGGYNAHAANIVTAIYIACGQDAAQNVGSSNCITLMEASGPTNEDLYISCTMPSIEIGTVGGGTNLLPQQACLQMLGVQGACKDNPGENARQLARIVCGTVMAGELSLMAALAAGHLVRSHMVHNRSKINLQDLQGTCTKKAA
In words: intrinsic HMG-CoA reductase inhibition activity, in vitro protocol of J. Med. Chem., 1985, 28, page 347. It counts as biochemical. The following applies: tested as the potassium salt. On the procedure: The intrinsic HMG-CoA reductase inhibition activity of the claimed compounds is measured in the in vitro protocol described is J. Med. Chem., 1985, 28, page 347.

Regarding `C[C@@H]1CC[C@H]2C(=CC(O)[C@H](C)[C@@H]2CC[C@@H](O)C[C@@H](O)CC(=O)O)C1` (stereo partly shown), the half-inhibitory concentration (IC50) is 5.87 µM.
